Data taken from patent publication US8192962B2, “Processes for detecting toxic substances” (Daikin Industries, Ltd., priority 2001, dated 2012).

System: Genes belonging to other category
Assay: DNA chip mRNA expression in yeast, genes belonging to other category (Table 9)
Format: cell-based, Saccharomyces cerevisiae S288C
Outline: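 Expression change after 2 h toxicant exposure (growth-inhibiting, sub-lethal) of log-phase S. cerevisiae S288C at 25° C. Oligo-dT-purified mRNA was labeled with Cy3-dUTP or Cy5-dUTP and hybridized >12 h at 65° C. to a genome-wide chip; ratio of scanned fluorescence to control.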

SMILES: N#Cc1c(Cl)c(Cl)c(Cl)c(C#N)c1Cl [(9), 2,4,5,6-tetrachloro-1,3-benzenedicarbonitrile]
- The level of expressed mRNA in the presence of chemical substance/The level of expressed mRNA in the absence of chemical substance (yeast gene YJR091C): 2.4
- The level of expressed mRNA in the presence of chemical substance/The level of expressed mRNA in the absence of chemical substance (yeast gene YJR099W): 1.4
- The level of expressed mRNA in the presence of chemical substance/The level of expressed mRNA in the absence of chemical substance (yeast gene YJR110W): 4.9
- The level of expressed mRNA in the presence of chemical substance/The level of expressed mRNA in the absence of chemical substance (yeast gene YJR122W): 5.3
- The level of expressed mRNA in the presence of chemical substance/The level of expressed mRNA in the absence of chemical substance (yeast gene YKL008C): 0.3
- The level of expressed mRNA in the presence of chemical substance/The level of expressed mRNA in the absence of chemical substance (yeast gene YKL013C): 1.5
- The level of expressed mRNA in the presence of chemical substance/The level of expressed mRNA in the absence of chemical substance (yeast gene YKL039W): 1.3
- The level of expressed mRNA in the presence of chemical substance/The level of expressed mRNA in the absence of chemical substance (yeast gene YKL041W): 1.6
- The level of expressed mRNA in the presence of chemical substance/The level of expressed mRNA in the absence of chemical substance (yeast gene YKL079W): 2.3
- The level of expressed mRNA in the presence of chemical substance/The level of expressed mRNA in the absence of chemical substance (yeast gene YKL096W): 0.0
- The level of expressed mRNA in the presence of chemical substance/The level of expressed mRNA in the absence of chemical substance (yeast gene YKL139W): 1.6
- The level of expressed mRNA in the presence of chemical substance/The level of expressed mRNA in the absence of chemical substance (yeast gene YKL165C): 0.4
- The level of expressed mRNA in the presence of chemical substance/The level of expressed mRNA in the absence of chemical substance (yeast gene YKL193C): 1.0
- The level of expressed mRNA in the presence of chemical substance/The level of expressed mRNA in the absence of chemical substance (yeast gene YKL196C): 4.3
- The level of expressed mRNA in the presence of chemical substance/The level of expressed mRNA in the absence of chemical substance (yeast gene YKR014C): 2.4
- The level of expressed mRNA in the presence of chemical substance/The level of expressed mRNA in the absence of chemical substance (yeast gene YKR068C): 2.4
- The level of expressed mRNA in the presence of chemical substance/The level of expressed mRNA in the absence of chemical substance (yeast gene YLL054C): 2.4
- The level of expressed mRNA in the presence of chemical substance/The level of expressed mRNA in the absence of chemical substance (yeast gene YLR080W): 2.3
- The level of expressed mRNA in the presence of chemical substance/The level of expressed mRNA in the absence of chemical substance (yeast gene YLR093C): 1.5
- The level of expressed mRNA in the presence of chemical substance/The level of expressed mRNA in the absence of chemical substance (yeast gene YLR118C): 1.1
- The level of expressed mRNA in the presence of chemical substance/The level of expressed mRNA in the absence of chemical substance (yeast gene YLR120C): 1.8
- The level of expressed mRNA in the presence of chemical substance/The level of expressed mRNA in the absence of chemical substance (yeast gene YLR136C): 0.9
- The level of expressed mRNA in the presence of chemical substance/The level of expressed mRNA in the absence of chemical substance (yeast gene YLR178C): 4.3
- The level of expressed mRNA in the presence of chemical substance/The level of expressed mRNA in the absence of chemical substance (yeast gene YLR206W): 1.5
- The level of expressed mRNA in the presence of chemical substance/The level of expressed mRNA in the absence of chemical substance (yeast gene YLR248W): 2.3
- The level of expressed mRNA in the presence of chemical substance/The level of expressed mRNA in the absence of chemical substance (yeast gene YLR250W): 2.7
- The level of expressed mRNA in the presence of chemical substance/The level of expressed mRNA in the absence of chemical substance (yeast gene YLR251W): 2.1
- The level of expressed mRNA in the presence of chemical substance/The level of expressed mRNA in the absence of chemical substance (yeast gene YLR327C): 3.0
- The level of expressed mRNA in the presence of chemical substance/The level of expressed mRNA in the absence of chemical substance (yeast gene YLR356W): 2.3
- The level of expressed mRNA in the presence of chemical substance/The level of expressed mRNA in the absence of chemical substance (yeast gene YLR362W): 3.5
- The level of expressed mRNA in the presence of chemical substance/The level of expressed mRNA in the absence of chemical substance (yeast gene YLR389C): 2.4
- The level of expressed mRNA in the presence of chemical substance/The level of expressed mRNA in the absence of chemical substance (yeast gene YLR391W): 0.4
- The level of expressed mRNA in the presence of chemical substance/The level of expressed mRNA in the absence of chemical substance (yeast gene YLR429W): 0.9
- The level of expressed mRNA in the presence of chemical substance/The level of expressed mRNA in the absence of chemical substance (yeast gene YMR004W): 94.2
- The level of expressed mRNA in the presence of chemical substance/The level of expressed mRNA in the absence of chemical substance (yeast gene YMR027W): 1.1
- The level of expressed mRNA in the presence of chemical substance/The level of expressed mRNA in the absence of chemical substance (yeast gene YMR053C): 2.2
- The level of expressed mRNA in the presence of chemical substance/The level of expressed mRNA in the absence of chemical substance (yeast gene YMR077C): 1.9
- The level of expressed mRNA in the presence of chemical substance/The level of expressed mRNA in the absence of chemical substance (yeast gene YMR091C): 2.1
- The level of expressed mRNA in the presence of chemical substance/The level of expressed mRNA in the absence of chemical substance (yeast gene YMR094W): −0.1
- The level of expressed mRNA in the presence of chemical substance/The level of expressed mRNA in the absence of chemical substance (yeast gene YMR104C): 0.6
- The level of expressed mRNA in the presence of chemical substance/The level of expressed mRNA in the absence of chemical substance (yeast gene YMR110C): 2.3
- The level of expressed mRNA in the presence of chemical substance/The level of expressed mRNA in the absence of chemical substance (yeast gene YMR112C): 1.4
- The level of expressed mRNA in the presence of chemical substance/The level of expressed mRNA in the absence of chemical substance (yeast gene YMR139W): 2.8
- The level of expressed mRNA in the presence of chemical substance/The level of expressed mRNA in the absence of chemical substance (yeast gene YMR197C): 1.9
- The level of expressed mRNA in the presence of chemical substance/The level of expressed mRNA in the absence of chemical substance (yeast gene YMR219W): 2.3
- The level of expressed mRNA in the presence of chemical substance/The level of expressed mRNA in the absence of chemical substance (yeast gene YMR226C): 2.6
- The level of expressed mRNA in the presence of chemical substance/The level of expressed mRNA in the absence of chemical substance (yeast gene YMR238W): 1.3
- The level of expressed mRNA in the presence of chemical substance/The level of expressed mRNA in the absence of chemical substance (yeast gene YMR262W): 3.0
- The level of expressed mRNA in the presence of chemical substance/The level of expressed mRNA in the absence of chemical substance (yeast gene YMR275C): 2.4
- The level of expressed mRNA in the presence of chemical substance/The level of expressed mRNA in the absence of chemical substance (yeast gene YMR276W): 1.8
